Experimental data published in patent US20240327392A1, “HETEROCYCLOALKYL-SUBSTITUTED POLYHETEROAZOLE DERIVATIVES AS MEDICAMENTS FOR TREATING AND/OR PREVENTING RS VIRUS INFECTIONS” (ALBIUS SCIENCES ALPHA PRIVATE LIMITED, priority 2021, published 2024).
pIC50: −log10 of the molar value.

system: human RS virus A2 strain; experiment: In vitro test for anti-RS virus proliferation inhibitory activity (quantitative RT-PCR of RS virus RNA copy number in infected Vero cells); format: cell-based; conditions: 72 h; Vero cells infected with human RS virus A2 strain, 3 days of incubation, RS virus N gene RNA copy number by quantitative RT-PCR; read-out: Anti-RS virus Activity
Outline: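 Vero cells infected with RSV A2 (1.7×10^4 TCID50/mL in inoculum mix) with compound in 10% FCS EMEM, 3 days at 37 °C, 5% CO2. Lysate viral N-gene RNA quantified by one-step SYBR qRT-PCR; copy number by comparative Ct relative to untreated infected cells.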

Row | SMILES | pIC50
1 | CC(C)(C)OC(=O)N1CCC[C@H]1c1nc(CCCc2ccccc2)no1 [Compound 1-1, 3-(3-phenylpropyl)-5-[(2S)-1-tert-butoxycarbonylpyrrolidin-2-yl]-1,2,4-oxadiazole] | < 4.30
2 | O=S(=O)(C1CCCCC1)N1CCC[C@H]1c1nc(CCCc2ccccc2)no1 [Compound 1B, 3-(3-phenylpropyl)-5-[(2S)-1-cyclohexylsulfonylpyrrolidin-2-yl]-1,2,4-oxadiazole] | 4.30 to 5.00
3 | O=C(N1CCC[C@H]1c1nc(CCCc2ccccc2)no1)C(F)(F)F [1C′, 3-(3-phenylpropyl)-5-[(2S)-1-trifluoroacetylpyrrolidin-2-yl]-1,2,4-oxadiazole] | > 5.00
4 | CS(=O)(=O)N1CCC[C@H]1c1nc(CCCc2ccccc2)no1 [Compound 1C, 3-(3-phenylpropyl)-5-[(2S)-1-methanesulfonylpyrrolidin-2-yl]-1,2,4-oxadiazole] | < 4.30
5 | CS(=O)(=O)N1CCCC[C@H]1c1nc(CCCc2ccccc2)no1 [Compound 2C, 3-(3-phenylpropyl)-5-[(2S)-1-methanesulfonylpiperidin-2-yl]-1,2,4-oxadiazole] | 4.30 to 5.00
6 | O=S(=O)(C1CCCCC1)N1CCCC[C@H]1c1nc(CCCc2ccccc2)no1 [Compound 2B, 3-(3-phenylpropyl)-5-[(2S)-1-cyclohexylsulfonylpiperidin-2-yl]-1,2,4-oxadiazole] | > 5.00
7 | CC(C)(C)OC(=O)N1CCCC[C@H]1c1nc(CCCc2ccccc2)no1 [Compound 2-1, 3-(3-phenylpropyl)-5-[(2S)-1-tert-butoxycarbonylpiperidin-2-yl]-1,2,4-oxadiazole] | 4.30 to 5.00

same assay, conditions: 72 h; Vero cells infected with human RS virus A2 strain, 3 days of incubation, RS virus RNA copy number by quantitative RT-PCR; read-out: Anti-RS virus Activity

Row | SMILES | pIC50
8 | CC(C)(C)OC(=O)N1C[C@H](c2ccccc2)C[C@H]1c1nc(CCCc2ccccc2)no1 [Compound 7-1, 3-(3-phenylpropyl)-5-[(2S,4S)-1-tert-butoxycarbonyl-4-phenylpyrrolidin-2-yl]-1,2,4-oxadiazole] | > 5.00
9 | CC(C)CS(=O)(=O)N1[C@@H]2CC[C@@H](C2)[C@H]1c1nc(CCc2ccccc2)no1 [Compound 14A, 5-((1R,3S,4S)-2-(isobutylsulfonyl)-2-azabicyclo[2.2.1]heptan-3-yl)-3-phenethyl-1,2,4-oxadiazole] | 4.30 to 5.00
10 | CC(C)(C)OC(=O)N1C[C@H](c2ccccc2)C[C@H]1c1nc(CCCCc2ccccc2)no1 [Compound C4-7-1, Tert-butyl (2S,4S)-4-phenyl-2-(3-(4-phenylbutyl)-1,2,4-oxadiazol-5-yl)pyrrolidine-1-carboxylate] | > 5.00
11 | N#C[C@H]1C[C@@H](c2nc(CCCc3ccccc3)no2)N(S(=O)(=O)c2ccc(F)cc2)C1 [Compound 41AJ, (3S,5S)-1-((4-fluorophenyl)sulfonyl)-5-(3-(3-phenylpropyl)-1,2,4-oxadiazol-5-yl)pyrrolidine-3-carbonitrile] | 4.30 to 5.00
12 | O=C(c1ccccc1)N1CCCC[C@H]1c1nc(CCCc2ccccc2)no1 [Compound 2S, (S)-Phenyl(2-(3-(3-phenylpropyl)-1,2,4-oxadiazol-5-yl)piperidin-1-yl)methanone] | > 5.00
13 | CC(C)(C)OC(=O)N1CCC[C@H]1c1nc(CCc2ccccc2)no1 [Compound 9-1, 3-(2-phenylethyl)-5-[(2S)-1-tert-butoxycarbonylpyrrolidin-2-yl]-1,2,4-oxadiazole] | < 4.30
14 | CC(C)(C)NC(=O)N1CCCC[C@H]1c1nc(CCc2ccncc2)no1 [Compound 12H, (S)—N-(tert-butyl)-2-(3-(2-(pyridin-4-yl)ethyl)-1,2,4-oxadiazol-5-yl)piperidine-1-carboxamide] | 4.30 to 5.00
15 | CC(C)(C)OC(=O)N1CCC(S(=O)(=O)N2C[C@H](c3ccccc3)C[C@H]2c2nc(CCCc3ccccc3)no2)CC1 [Compound 7AO] | > 5.00
16 | CC(C)CC(=O)N1CCCC[C@H]1c1nc(CCCc2ccccc2)no1 [Compound 2Q, (S)-3-Methyl-1-(2-(3-(3-phenylpropyl)-1,2,4-oxadiazol-5-yl)piperidin-1-yl)butan-1-one] | > 5.00
17 | CC(C)(C)OC(=O)N1C[C@@H](C#N)C[C@H]1c1nc(CCCc2ccccc2)no1 [Compound 41-1, Tert-butyl (2S,4S)-4-cyano-2-(3-(3-phenylpropyl)-1,2,4-oxadiazol-5-yl)pyrrolidine-1-carboxylate] | 4.30 to 5.00
18 | CC(C)(C)OC(=O)N1C[C@H]2CC[C@]1(c1nc(CCc3ccncc3)no1)CC2 [Compound 13-1, Tert-butyl (1s,4s)-1-(3-(2-(pyridin-4-yl)ethyl)-1,2,4-oxadiazol-5-yl)-2-azabicyclo[2.2.2]octane-2-carboxylate] | 4.30 to 5.00
19 | O=S(=O)(c1ccc(F)cc1)N1CC2(CC2)C[C@H]1c1nc(CCCc2ccccc2)no1 [Compound 5AJ, (S)-5-(5-((4-fluorophenyl)sulfonyl)-5-azaspiro[2.4]heptan-6-yl)-3-(3-phenylpropyl)-1,2,4-oxadiazole] | > 5.00
20 | CC(C)(C)OC(=O)N1[C@@H]2CC[C@@H](C2)[C@H]1c1nc(CCc2ccccc2)no1 [Compound 14-1, Tert-butyl (1R,3S,4S)-3-(3-phenethyl-1,2,4-oxadiazol-5-yl)-2-azabicyclo[2.2.1]heptane-2-carboxylate] | > 5.00
21 | O=S(=O)(C1CCCCC1)N1[C@@H]2CC[C@@H](C2)[C@H]1c1nnc(CCc2ccncc2)[nH]1 [Compound 29B, (1R,3S,4S)-2-(cyclohexylsulfonyl)-3-(5-(2-(pyridin-4-yl)ethyl)-4H-1,2,4-triazol-3-yl)-2-azabicyclo[2.2.1]heptane] | 4.30 to 5.00
22 | CN(C)c1cccc2c(S(=O)(=O)N3CC4(CC4)C[C@H]3c3nc(CCCc4ccccc4)no3)cccc12 [Compound 5AL, (S)-N,N-dimethyll-5-((6-(3-(3-phenylpropyl)-1,2,4-oxadiazole-5-yl)-5-azaspiro[2.4]heptan-5-yl)sulfonyl)naphthalen-1-amine] | > 5.00
23 | CC(C)CCN1CCCC[C@H]1c1nc(CCCc2ccccc2)no1 [Compound 2T, (S)-5-(1-isopentylpiperidin-2-yl)-3-(3-phenylpropyl)-1,2,4-oxadiazole] | 4.30 to 5.00
24 | Cc1sc([C@@H]2CCCCN2S(=O)(=O)C2CCCCC2)nc1C(=O)NCc1ccccc1 [Compound 37B, (S)—N-Benzyl-2-(1-(cyclohexylsulfonyl)piperidin-2-yl)-5-methylthiazole-4-carboxamide] | > 5.00
25 | CC(C)(C)OC(=O)N1C[C@H](c2ccccc2)C[C@H]1c1nc(Cc2ccccc2)no1 [Compound C1-7-1, Tert-butyl (2S,4S)-2-(3-benzyl-1,2,4-oxadiazol-5-yl)-4-phenylpyrrolidine-1-carboxylate] | > 5.00
26 | O=C(OC1CCCC1)N1CCC[C@H]1c1nc(CCCc2ccccc2)no1 [Compound 1O, Cyclopentyl (S)-2-(3-(3-phenylpropyl)-1,2,4-oxadiazol-5-yl) pyrrolidine-1-carboxylate] | 4.30 to 5.00
27 | O=C(NCc1cnc2ccccc2c1)N1[C@@H]2CC[C@@H](C2)[C@H]1c1nnc(Cc2c[nH]c3ccccc23)[nH]1 [Compound 24AH] | 4.30 to 5.00
28 | O=S(=O)(C1CCCCC1)N1CC(c2ccccc2)C[C@H]1c1nc(CCCc2ccccc2)no1 (stereo in doubt) [Compound 7B, 3-(3-Phenylpropyl)-5-[(2S,4S)-1-cyclohexylsulfonyl-4-phenylpyrrolidin-2-yl]-1,2,4-oxadiazole] | > 5.00
29 | O=S(=O)(N1CCOCC1)N1C[C@H](c2ccccc2)C[C@H]1c1nc(CCCc2ccccc2)no1 [Compound 7AE, 4-(((2S,4S)-4-phenyl2-(3-(3-phenylpropyl)-1,2,4-oxadiazole-5-yl)pyrrolidin-1-yl)sulfonyl) morpholine] | 4.30 to 5.00
30 | O=C(NCc1noc([C@@H]2C[C@@H](c3ccccc3)CN2S(=O)(=O)c2ccc(F)cc2)n1)c1ccc2ccccc2n1 [Compound 45AJ, N-((5-((2S,4S)-1-((4-fluorophenyl)sulfonyl)-4-phenylpyrrolidin-2-yl)-1,2,4-oxadiazol-3-yl)methyl)quinoline-2-carboxamide] | 4.30 to 5.00
31 | CC(C)(C)OC(=O)N1CC(CS(=O)(=O)N2CC3(CC3)C[C@H]2c2nc(CCCc3ccccc3)no2)C1 [Compound 5AM, tert-buthyl (S)-3-(((6-(3-(3-phenylpropyl)-1,2,4-oxadiazole-5-yl)-5-azaspiro[2.4]heptan-5-yl)sulfonyl)methyl)azetidin-1-carboxylate] | > 5.00
32 | CN(C)c1cccc2c(S(=O)(=O)N3C[C@H](c4ccccc4)C[C@H]3c3nc(CCCc4ccccc4)no3)cccc12 [Compound 7AL, N,N-dimethyl-5-(((2S,4S)-4-phenyl2-(3-(3-phenylpropyl)-1,2,4-oxadiazole-5-yl)pyrrolidin-1-yl)sulfonyl)naphthalen-1-amine] | > 5.00
33 | O=C(NCc1noc([C@@H]2CCCN2S(=O)(=O)C2CCCCC2)n1)c1cccc2ccccc12 [Compound 11B, 3-[(1-naphthoylamino)methyl]-5-[(2S)-1-cyclohexylsulfonylpyrrolidin-2-yl]-1,2,4-oxadiazole] | 4.30 to 5.00
34 | CC(C)(C)OC(=O)N1CCCC[C@H]1c1nc(CCc2ccccc2)no1 [Compound 10-1, 3-(3-phenylethyl)-5-[(2S)-1-tert-butoxycarbonylpiperidin-2-yl]-1,2,4-oxadiazole] | 4.30 to 5.00
35 | CC(C)COC(=O)N1CCC[C@H]1c1nc(CCCc2ccccc2)no1 [Compound 1I, Isobutyl (S)-2-(3-(3-phenylpropyl)-1,2,4-oxadiazol-5-yl) pyrrolidine-1-carboxylate] | > 5.00
36 | CC(C)(C)[S+]([O-])N1CCCC[C@H]1c1nc(CCCc2ccccc2)no1 (single isomer, unassigned) [2W′] | 4.30 to 5.00

same assay, conditions: Vero, 72 h, read-out: Anti-RS virus Activity

Row | SMILES | pIC50
37 | S=C(NCc1ccccc1)N1C[C@H](c2ccccc2)C[C@H]1c1nc(CCCc2ccccc2)no1 [Compound 7AR, (2S,4S)—N-Benzyl-4-phenyl-2-(3-(3-phenylpropyl)-1,2,4-oxadiazol-5-yl) pyrrolidine-1-carbothioamide] | 4.30 to 5.00
